Results: US4177269A, “Novel 17-esters of 17α-hydroxy gestogens, compositions containing such compounds, processes for their preparation and methods of treatment therewith” (Aktiebolaget Leo, priority 1976, dated 1979)

Assays:
[1] = tested on: Walker carcinosarcoma 256; assay: Walker carcinosarcoma 256 tumour growth inhibition in rats; type: in vivo, Sprague-Dawley rats; set-up: ED50: unit: mg/kg; details: daily p.o. for 5 days; for antitumour activity: result in words
Text: (§1) LD50 is the dose that causes a 50 percent lethality of the animals, and ED50 is the dose that causes a 50 percent reduction of tumour size.
(§2) The experimental design and the interpretation of the results are in accordance with the standards set by the CCNSC (Cancer Chemotherpy Reports, January 1959 and December 1962).
(§3) Walker carcinosarcoma 256.
(§4) Experimental animals: Sprague-Dawley rats.
(§5) Tumour implant: Tumour pieces with 2-4 mm diameter, sub-
(§6) Therapy: Daily p.o. administration for 5 days starting on
(§7) the day following implantation.
(§8) Termination: The animals are killed on the 9th day.
(§9) Evaluation: Weights of tumours of test animals are compared
(§10) with those of control animals.

[2] = as above; type: in vivo, Sprague-Dawley rats; set-up: ED50: unit: mg/kg; details: rat, in vivo, po, daily p.o. for 5 days
Text: as §1, §2, §3, §4, §5, §6, §7, §8, §9, §10

[3] = tested on: Hepatome AH 130; assay: Hepatome AH 130 tumour growth inhibition in rats; type: in vivo, Sprague-Dawley rats; set-up: ED50: unit not given here; details: one i.p. injection; for ED50: dose causing 50 percent reduction of tumour size, killed 8th day
Text: as §1, §2, §4
(§11) Tumour implant: 5 × 10^6 tumour cells i.p.
(§12) Therapy: One injection i.p. on the day following implanta-
(§13) Termination: The animals are killed on the 8th day.
as §9, §10

[4] = Hepatome AH 130 tumour growth inhibition in rats; type: in vivo, Sprague-Dawley rats; set-up: ED50: unit not given here; details: rat, in vivo, ip, one i.p. injection; for LD50: dose causing 50 percent lethality, column head not given; for selectivity ratio: read-out: T.I. (LD50/ED50)
Text: as §1, §2, §4, §11, §12, §13, §9, §10

[5] = tested on: Ehrlich ascites tumour, ELD hyperdiploid; assay: Ehrlich ascites tumour, ELD hyperdiploid (46 chromosomes), growth inhibition in mice; type: in vivo, SPF NMRI mice; details: one i.p. injection, result in words
Text: as §2
Ehrlich ascites tumour, ELD hyperdiploid
Experimental animals: SPF NMRI mice.
Tumour implant: 2 × 10^6 tumour cells i.p.
as §12, §13
Evaluation: Weight of tumours of test animals compared with
those of control animals.

Compound | ED50 ([1]; dose causing 50 percent reduction of tumour size, killed 9th day) | LD50 ([2]; dose causing 50 percent lethality) | selectivity ratio ([2]; read-out: T.I. (LD50/ED50)) | ED50 [3] | LD50 [4] | selectivity ratio [4] | antitumour activity [5] | antitumour activity [1] | antitumour activity ([3]; result in words)
CC(=O)[C@@]1(OC(=O)CCCOC(=O)Cc2ccc(N(CCCl)CCCl)cc2)CC[C@H]2[C@@H]3CCC4=CC(=O)CC[C@]4(C)[C@H]3CC[C@@]21C [3:4, 17α-/4-(4-(N,N-bis(2-chloroethyl)amino)phenylacetoxyy)butanoyloxy/pregn-4-ene-3,20-dione] | 4 | 80 mg/kg | 20 | 2 | 50 mg/kg | 25 | exhibit antitumour activity | – | –
CC(=O)[C@@]1(OC(=O)COC(=O)CSc2ccc(N(CCCl)CCCl)cc2)CC[C@H]2[C@@H]3CCC4=CC(=O)CC[C@]4(C)[C@H]3CC[C@@]21C [3:5, 17α-/4-(N,N-bis(2-chloroethyl)amino)phenylthioacetoxyacetoxy/pregn-4-ene-3,20-dione] | – | – | – | 50 | > 250 mg/kg | > 5 | exhibit antitumour activity | exhibit antitumour activity | –
CC(=O)[C@@]1(OC(=O)COC(=O)CCCc2ccc(N(CCCl)CCCl)cc2)CC[C@H]2[C@@H]3C[C@H](C)C4=CC(=O)CC[C@]4(C)[C@H]3CC[C@@]21C [3:16, 17α-[4-(4-(N,N-bis(2-chloroethyl)amino)phenyl)butanoyloxyacetoxy]-6α-methylpregn-4-ene-3,20-dione] | – | – | – | – | – | – | exhibit antitumour activity | exhibit antitumour activity | –
CC(=O)[C@@]1(OC(=O)CCCNC(=O)Cc2ccc(N(CCCl)CCCl)cc2)CC[C@H]2[C@@H]3CCC4=CC(=O)CC[C@]4(C)[C@H]3CC[C@@]21C [6:1, 17α-/4-(4-(N,N-bis(2-chloroethyl)amino)phenylacetylamino)butanoyloxy/pregn-4-ene-3,20-dione] | – | – | – | – | – | – | exhibit antitumour activity | exhibit antitumour activity | –
CC(=O)[C@@]1(OC(=O)COC(=O)c2cccc(N(CCCl)CCCl)c2)CC[C@H]2[C@@H]3CCC4=CC(=O)CC[C@]4(C)[C@H]3CC[C@@]21C [3:6, 17α-/3-(N,N-bis(2-chloroethyl)amino)benzoyloxyacetoxy/pregn-4-ene-3,20-dione] | – | – | – | – | – | – | exhibit antitumour activity | exhibit antitumour activity | exhibit antitumour activity
CC(=O)N[C@@H](Cc1ccc(N(CCCl)CCCl)cc1)C(=O)OCC(=O)O[C@]1(C(C)=O)CC[C@H]2[C@@H]3CCC4=CC(=O)CC[C@]4(C)[C@H]3CC[C@@]21C [3:14, 17-[(2S)-2-acetamido-3-(4-(N,N-bis(2-chloroethyl)amino)phenyl)propanoyloxyacetoxy]pregn-4-ene-3,20-dione] | – | – | – | – | – | – | exhibit antitumour activity | exhibit antitumour activity | –
